Laboratory results as given in PubChem BioAssay AID1259407 (Chemical Carcinogenesis Research Information System (CCRIS), 2018).
Calls of active or inactive are those of the source. No rule for the calls is given here.

System: CCRIS mutagenicity, Ames/micronucleus/aberration tests
Assay: CCRIS mutagenicity studies
[1] = Test System: AMES SALMONELLA TYPHIMURIUM, Strain/Indicator: TA98, Metabolic Activation: NONE, Method: PREINCUBATION
[2] = Test System: AMES SALMONELLA TYPHIMURIUM, Strain/Indicator: TA100, Metabolic Activation: NONE, Method: PREINCUBATION
[3] = Test System: AMES SALMONELLA TYPHIMURIUM, Strain/Indicator: TA1535, Metabolic Activation: NONE, Method: PREINCUBATION
[4] = Test System: AMES SALMONELLA TYPHIMURIUM, Strain/Indicator: TA1537, Metabolic Activation: NONE, Method: PREINCUBATION
[5] = Test System: MOUSE LYMPHOMA, Strain/Indicator: L5178Y (TK+/TK-), Metabolic Activation: NONE, Method: SUSPENSION/PLATE
[6] = Test System: MOUSE LYMPHOMA, Strain/Indicator: L5178Y (TK+/TK-), Metabolic Activation: RAT, LIVER, S-9, AROCLOR 1254, Method: SUSPENSION/PLATE

What does the source list for `CC1(C)S[C@@H]2[C@H](NC(=O)[C@H](N)c3ccccc3)C(=O)N2[C@H]1C(=O)O`?
mutagenic call (End Point: IN VITRO CHROMOSOMAL ABERRATIONS, Test System: CHO CELLS, Metabolic Activation: NONE): inactive; negative; testing limited by solubility of chemical; mutagenic call (End Point: IN VITRO CHROMOSOMAL ABERRATIONS, Test System: CHO CELLS, Metabolic Activation: RAT, LIVER, S-9, AROCLOR 1254): inactive; negative; testing limited by solubility of chemical; mutagenic call (Test System: AMES SALMONELLA TYPHIMURIUM, Strain/Indicator: TA98, Metabolic Activation: HAMSTER, LIVER, S-9, AROCLOR 1254, Method: PREINCUBATION): inactive; negative; mutagenic call [1]: inactive; negative; mutagenic call (Test System: AMES SALMONELLA TYPHIMURIUM, Strain/Indicator: TA98, Metabolic Activation: RAT, LIVER, S-9, AROCLOR 1254, Method: PREINCUBATION): inactive; negative; mutagenic call (Test System: AMES SALMONELLA TYPHIMURIUM, Strain/Indicator: TA100, Metabolic Activation: HAMSTER, LIVER, S-9, AROCLOR 1254, Method: PREINCUBATION): inactive; negative; mutagenic call [2]: inactive; negative; mutagenic call (Test System: AMES SALMONELLA TYPHIMURIUM, Strain/Indicator: TA100, Metabolic Activation: RAT, LIVER, S-9, AROCLOR 1254, Method: PREINCUBATION): inactive; negative; mutagenic call (Test System: AMES SALMONELLA TYPHIMURIUM, Strain/Indicator: TA1535, Metabolic Activation: HAMSTER, LIVER, S-9, AROCLOR 1254, Method: PREINCUBATION): inactive; negative; mutagenic call [3]: inactive; negative; mutagenic call (Test System: AMES SALMONELLA TYPHIMURIUM, Strain/Indicator: TA1535, Metabolic Activation: RAT, LIVER, S-9, AROCLOR 1254, Method: PREINCUBATION): inactive; negative; mutagenic call (Test System: AMES SALMONELLA TYPHIMURIUM, Strain/Indicator: TA1537, Metabolic Activation: HAMSTER, LIVER, S-9, AROCLOR 1254, Method: PREINCUBATION): inactive; negative; mutagenic call [4]: inactive; negative; mutagenic call (Test System: AMES SALMONELLA TYPHIMURIUM, Strain/Indicator: TA1537, Metabolic Activation: RAT, LIVER, S-9, AROCLOR 1254, Method: PREINCUBATION): inactive; negative; mutagenic call [5]: inactive; negative; mutagenic call [6]: inactive; negative

How did the mutagenic call (Test System: AMES SALMONELLA TYPHIMURIUM, Strain/Indicator: TA100, Metabolic Activation: RAT, LIVER, S-9, KC500 OR PHENOBARBITAL, Method: LIQUID SUSPENSION) turn out when `O=S1(=O)CCCO1` was run?
The mutagenic call was “active; positive”.

And the mutagenic call (Test System: AMES SALMONELLA TYPHIMURIUM, Strain/Indicator: TA1535, Metabolic Activation: NONE, Method: STANDARD PLATE)?
The mutagenic call was “active; positive”.

What about the mutagenic call (Test System: UDS HUMAN FIBROBLASTS, Strain/Indicator: THY INCORP (NON-S-PHASE), Metabolic Activation: NONE, Method: LIQUID SCINTILLATION COUNTING) of the same compound?
The mutagenic call was “active; positive”.

Which mutagenic call (Test System: UDS HUMAN CELLS, Strain/Indicator: THY INCORP (NON-S-PHASE), Metabolic Activation: RAT, LIVER, S-9, PHENOBARBITAL, Method: LIQUID SCINTILLATION COUNTING) does the source give for `Nc1c(Cl)cc(-c2cc(Cl)c(N)c(Cl)c2)cc1Cl` here?
Its mutagenic call is “active; positive”.

Which mutagenic call (Test System: AMES SALMONELLA TYPHIMURIUM, Strain/Indicator: TA98, Metabolic Activation: NONE, Method: STANDARD PLATE) does the source give for `CC(C)(C)c1cc(-c2ccccc2)ccc1NO` here?
The mutagenic call was “active; positive”.

What about the mutagenic call (Test System: AMES SALMONELLA TYPHIMURIUM, Strain/Indicator: TA98, Metabolic Activation: S-9, Method: STANDARD PLATE) of the same compound?
The mutagenic call was “active; positive”.

What about the mutagenic call (Test System: AMES SALMONELLA TYPHIMURIUM, Strain/Indicator: TA100, Metabolic Activation: NONE, Method: STANDARD PLATE) of the same compound?
The mutagenic call was “active; positive”.

And the mutagenic call (Test System: AMES SALMONELLA TYPHIMURIUM, Strain/Indicator: TA100, Metabolic Activation: S-9, Method: STANDARD PLATE)?
The mutagenic call was “active; positive”.

For `CNC(=O)ON=CC(C)(C)SC`, which mutagenic call (End Point: IN VIVO CHROMOSOMAL ABERRATIONS, Test System: BONE MARROW CELLS, Species: RAT, Strain/Sex: MALE, Route: ORAL (GAVAGE)) is on record?
Its mutagenic call is “active; positive (structural and ploidy changes)”.

What about the mutagenic call (End Point: IN VIVO MICRONUCLEUS, Test System: BONE MARROW POLYCHROMATIC ERYTHROCYTES, Species: RAT, Strain/Sex: MALE, Route: ORAL (GAVAGE)) of the same compound?
Its mutagenic call is “active; positive”.

What about the mutagenic call (Test System: AMES SALMONELLA TYPHIMURIUM, Strain/Indicator: TA97, Metabolic Activation: HAMSTER, LIVER, S-9, AROCLOR 1254 (10 OR 30%), Method: PREINCUBATION) of the same compound?
The mutagenic call was “inactive; negative”.

What about the mutagenic call (Test System: AMES SALMONELLA TYPHIMURIUM, Strain/Indicator: TA97, Metabolic Activation: NONE, Method: PREINCUBATION) of the same compound?
The mutagenic call was “inactive; negative”.

And the mutagenic call (Test System: AMES SALMONELLA TYPHIMURIUM, Strain/Indicator: TA97, Metabolic Activation: RAT, LIVER, S-9, AROCLOR 1254 (10 OR 30%), Method: PREINCUBATION)?
The mutagenic call was “inactive; negative”.

And the mutagenic call (Test System: AMES SALMONELLA TYPHIMURIUM, Strain/Indicator: TA98, Metabolic Activation: HAMSTER, LIVER, S-9, AROCLOR 1254 (10 OR 30%), Method: PREINCUBATION)?
Its mutagenic call is “inactive; negative”.

And the mutagenic call [1]?
Its mutagenic call is “inactive; negative”.

What about the mutagenic call (Test System: AMES SALMONELLA TYPHIMURIUM, Strain/Indicator: TA98, Metabolic Activation: RAT, LIVER, S-9, AROCLOR 1254 (10 OR 30%), Method: PREINCUBATION) of the same compound?
Its mutagenic call is “inactive; negative”.

What about the mutagenic call (Test System: AMES SALMONELLA TYPHIMURIUM, Strain/Indicator: TA100, Metabolic Activation: HAMSTER, LIVER, S-9, AROCLOR 1254 (10 OR 30%), Method: PREINCUBATION) of the same compound?
Its mutagenic call is “inactive; negative”.

And the mutagenic call [2]?
Its mutagenic call is “inactive; negative”.

What about the mutagenic call (Test System: AMES SALMONELLA TYPHIMURIUM, Strain/Indicator: TA100, Metabolic Activation: RAT, LIVER, S-9, AROCLOR 1254 (10 OR 30%), Method: PREINCUBATION) of the same compound?
Its mutagenic call is “inactive; negative”.

And the mutagenic call (Test System: AMES SALMONELLA TYPHIMURIUM, Strain/Indicator: TA1535, Metabolic Activation: HAMSTER, LIVER, S-9, AROCLOR 1254 (10 OR 30%), Method: PREINCUBATION)?
The mutagenic call was “inactive; negative”.

What about the mutagenic call [3] of the same compound?
Its mutagenic call is “inactive; negative”.

What about the mutagenic call (Test System: AMES SALMONELLA TYPHIMURIUM, Strain/Indicator: TA1535, Metabolic Activation: RAT, LIVER, S-9, AROCLOR 1254 (10 OR 30%), Method: PREINCUBATION) of the same compound?
Its mutagenic call is “inactive; negative”.

And the mutagenic call (Test System: AMES SALMONELLA TYPHIMURIUM, Strain/Indicator: TA1537, Metabolic Activation: HAMSTER, LIVER, S-9, AROCLOR 1254 (10 OR 30%), Method: PREINCUBATION)?
Its mutagenic call is “inactive; negative”.

And the mutagenic call [4]?
Its mutagenic call is “inactive; negative”.

And the mutagenic call (Test System: AMES SALMONELLA TYPHIMURIUM, Strain/Indicator: TA1537, Metabolic Activation: RAT, LIVER, S-9, AROCLOR 1254 (10 OR 30%), Method: PREINCUBATION)?
Its mutagenic call is “inactive; negative”.

And the mutagenic call (Test System: E. COLI, Strain/Indicator: WP2 UVRA, Metabolic Activation: HAMSTER, LIVER, S-9, AROCLOR 1254, Method: STANDARD PLATE)?
The mutagenic call was “inactive; negative”.

What about the mutagenic call (Test System: E. COLI, Strain/Indicator: WP2 UVRA, Metabolic Activation: HAMSTER, LIVER, S-9, Method: STANDARD PLATE) of the same compound?
The mutagenic call was “inactive; negative”.

And the mutagenic call (Test System: E. COLI, Strain/Indicator: WP2 UVRA, Metabolic Activation: MOUSE, LIVER, S-9, AROCLOR 1254, Method: STANDARD PLATE)?
The mutagenic call was “inactive; negative”.

And the mutagenic call (Test System: E. COLI, Strain/Indicator: WP2 UVRA, Metabolic Activation: MOUSE, LIVER, S-9, Method: STANDARD PLATE)?
Its mutagenic call is “inactive; negative”.

What about the mutagenic call (Test System: E. COLI, Strain/Indicator: WP2 UVRA, Metabolic Activation: NONE, Method: STANDARD PLATE) of the same compound?
Its mutagenic call is “inactive; negative”.

What about the mutagenic call (Test System: E. COLI, Strain/Indicator: WP2 UVRA, Metabolic Activation: RAT, LIVER, S-9, AROCLOR 1254, Method: STANDARD PLATE) of the same compound?
Its mutagenic call is “inactive; negative”.

And the mutagenic call (Test System: E. COLI, Strain/Indicator: WP2 UVRA, Metabolic Activation: RAT, LIVER, S-9, Method: STANDARD PLATE)?
The mutagenic call was “inactive; negative”.

And the mutagenic call [5]?
Its mutagenic call is “active; positive”.

What about the mutagenic call [6] of the same compound?
Its mutagenic call is “active; positive”.

And the mutagenic call (Test System: MOUSE LYMPHOMA, Strain/Indicator: L5178Y (TK+/TK-), Metabolic Activation: RAT, LIVER, S-9, Method: SUSPENSION/PLATE)?
Its mutagenic call is “active; positive”.
